In PMC4879785, “GintAMT3 – a Low-Affinity Ammonium Transporter of the Arbuscular Mycorrhizal Rhizophagus irregularis” (Frontiers in Plant Science, 2016):

Tests used:
GintAMT2 = target: T1, GintAMT2 (Rhizophagus intraradices, UniProt F8K9Q4); conditions: starting ammonium printed as 1 mM and 2 mM (Figure 5 legend)
T1 construct: gene amt2

GintAMT1 = target: T2, GintAMT1 (Rhizophagus intraradices, UniProt A2Q6J0); conditions: starting ammonium printed as 1 mM and 2 mM (Figure 5 legend)
T2 construct: gene AMT1

[1] = substrate: CN; test: cells, lysate or membranes; assay type: cell-based, Rhizophagus irregularis; conditions: pH 5, 50 mM KH2PO4, 20 mM glucose, 30 °C, labelled compound, 0-15 mM substrate, Hanes-Woolf plot

T1 sequence (F8K9Q4 1-470): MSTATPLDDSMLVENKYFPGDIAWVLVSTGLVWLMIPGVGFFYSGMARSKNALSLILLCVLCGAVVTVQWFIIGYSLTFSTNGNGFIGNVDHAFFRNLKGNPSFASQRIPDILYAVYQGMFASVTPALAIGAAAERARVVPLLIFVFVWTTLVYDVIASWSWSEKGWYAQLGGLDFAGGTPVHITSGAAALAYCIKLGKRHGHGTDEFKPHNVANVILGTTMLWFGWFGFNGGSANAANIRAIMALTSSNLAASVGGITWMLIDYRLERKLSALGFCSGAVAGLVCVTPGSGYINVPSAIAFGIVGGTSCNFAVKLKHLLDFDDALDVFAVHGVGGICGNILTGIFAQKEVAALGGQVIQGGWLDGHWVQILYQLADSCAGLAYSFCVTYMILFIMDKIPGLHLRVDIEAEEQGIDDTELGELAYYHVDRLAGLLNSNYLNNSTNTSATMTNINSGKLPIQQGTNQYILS
T2 sequence (A2Q6J0 1-479): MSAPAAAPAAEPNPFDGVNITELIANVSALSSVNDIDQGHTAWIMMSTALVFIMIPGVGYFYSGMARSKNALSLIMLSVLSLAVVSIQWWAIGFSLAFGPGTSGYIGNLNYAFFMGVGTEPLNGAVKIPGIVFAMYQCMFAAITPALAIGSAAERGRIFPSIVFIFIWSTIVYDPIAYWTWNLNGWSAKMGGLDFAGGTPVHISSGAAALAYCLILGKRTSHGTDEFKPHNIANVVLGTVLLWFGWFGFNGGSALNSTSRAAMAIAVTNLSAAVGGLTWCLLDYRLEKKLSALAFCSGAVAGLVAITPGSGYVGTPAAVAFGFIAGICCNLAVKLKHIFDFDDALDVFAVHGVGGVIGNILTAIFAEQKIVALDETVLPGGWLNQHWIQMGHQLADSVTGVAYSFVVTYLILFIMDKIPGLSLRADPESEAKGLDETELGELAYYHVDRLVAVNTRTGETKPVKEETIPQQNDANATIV

| Molecule | ammonium removal from medium by yeast (GintAMT2) | ammonium removal from medium by yeast (GintAMT1) | Km [1] |
| --- | --- | --- | --- |
| N [ammonium] | GintAMT2 and GintAMT3 expressing cells imported ammonium at a slower rate | Yeast cells expressing ScMEP1 and GintAMT1 took up ammonium quite rapidly. |  |
| GintAMT3 (Rhizophagus irregularis) (protein) MSETSQPSQFKEGDIAWMLTSTAFVWLMIPGVGYFYSGMARSKNALSLILFCFLCVPVVAMQWFIWGYSLSFSRTGGLFIGNLRNAFFMNVRGEPTLKAESLPEIVHAIYQGMFAAITPSLAIGAAAERARMLPLLVFIFVWSTLVYDVIACWIWSANGWFKTIEGLDFAGGTPVHIASGAAALAYCVVLGKRHGHGRDEFKPHNNVNVILGTVFLWFGWFGFNGGSAFGANTRAAMAIMVTNTAASFGGLAWMLMDYRLERKFSALGFCSGAVAGLVCITPASGYVSPPVSVLFGITGGIACNLAVKLKHILDFDDALDVFAVHAVGGVAGNTLLGIFADKEMAALNGEIIHGGAIDGHSVQLGYQIASSIAGLTYSFCISALILYVMDRIPCLKLRMEPDEEEIGTDETELGEPAYYFLDRVVASIQVQIASKTMSSPQQTQLQSIDHIHYS |  |  | 1800 µM |
